Measured values: publication PMC8014119 (Angewandte Chemie (International Ed. in English), 2021)
Like-named read-outs stand apart in the source and are kept apart here.

Legend:
SARS-CoV-2 Mpro = SARS-CoV-2 Mpro (Severe acute respiratory syndrome coronavirus 2, UniProt P0DTD1); type: biochemical
[1] = molecular target: His-tagged SARS-CoV-2 Mpro (Severe acute respiratory syndrome coronavirus 2, UniProt P0DTD1); assay: Mpro inhibition in the presence of mammalian cell lysates; type: biochemical; conditions: 50 µM substrate, 10 min, 37 °C
human cathepsin B = human cathepsin B (Homo sapiens, UniProt P07858); assay: Inhibition of human cathepsin B; type: biochemical; conditions: in words
human cathepsin L = human cathepsin L (Homo sapiens, UniProt P07711); assay: Inhibition of human cathepsin L; type: biochemical; conditions: in words
SARS-CoV-2 = conditions: Vero E6 cells; cited from earlier work
[2] = Table 2, azapeptide nitriles, 50 µM substrate, pH 7.2, 37 °C, 60 min
[3] = Table 3, 5-halopyridin-3-yl esters, kinetic analysis as Table 2

Chain of human cathepsin L (P07711 114-333): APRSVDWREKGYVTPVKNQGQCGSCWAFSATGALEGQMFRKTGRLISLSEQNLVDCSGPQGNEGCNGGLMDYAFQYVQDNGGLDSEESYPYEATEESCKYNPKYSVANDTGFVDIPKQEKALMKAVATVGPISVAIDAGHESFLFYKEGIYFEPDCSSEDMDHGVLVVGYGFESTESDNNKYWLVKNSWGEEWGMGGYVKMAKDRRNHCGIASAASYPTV

Row | SMILES | k inac/K i (SARS-CoV-2 Mpro; [2]) | Mpro inhibition in HEK and A549 cell lysates ([1]; inhibitor 1 μM) | k inac/K i (SARS-CoV-2 Mpro; [3]) | further results
1 | CC(C)C[C@H](NC(=O)OCc1ccccc1)C(=O)N(C)N(C#N)CCC(N)=O [Compound 3] | 489 M⁻¹ s⁻¹ |  |  | 
2 | CC[C@H](NC(=O)OCc1ccccc1)C(=O)N[C@H](C(=O)N[C@@H](Cc1ccccc1)C(=O)N(C)N(C#N)CCC(N)=O)C(C)(C)C [Compound 8] |  | virtually complete inhibition |  | 
3 | CN(C(=O)[C@H](Cc1ccccc1)NC(=O)[C@@H](NC(=O)OCc1ccccc1)C(C)(C)C)N(C#N)CCC(N)=O [Compound 6] | 36 000 M^−1 s^−1 | virtually complete inhibition |  | 
4 | O=C(Oc1cncc(Cl)c1)c1cc2cc(Cl)ccc2[nH]1 [Compound 17] |  | virtually complete inhibition | 29 100 M^−1 s^−1 | cathepsin B inhibition (human cathepsin B): did not inhibit; cathepsin L inhibition (human cathepsin L): did not inhibit
5 | CC(C)C[C@H](NC(=O)[C@@H](NC(=O)OCc1ccccc1)C(C)(C)C)C(=O)N(C)N(C#N)CCC(N)=O [Compound 5] | 2060 M⁻¹ s⁻¹ |  |  | 
6 | O=C(Oc1cncc(Cl)c1)c1cccc2c1CCN2 [5‐chloropyridin‐3‐yl dihydroindole‐4‐carboxylate] |  |  |  | activity against infectivity and replication of SARS-CoV-2 (SARS-CoV-2): active
7 | O=C(Oc1cncc(Br)c1)c1cccc2[nH]ccc12 [Compound 18] |  |  | 24 000 M^−1 s^−1 | 
8 | O=C(Oc1cncc(Cl)c1)c1ccc2[nH]c3c(c2c1)CCCC3 [Compound 19] |  |  | 5620 M⁻¹ s⁻¹ | 
9 | CN(C(=O)[C@H](Cc1ccccc1)NC(=O)OCc1ccccc1)N(C#N)CCC(N)=O [Compound 4] | 1150 M⁻¹ s⁻¹ |  |  | Mpro inhibition in HEK and A549 cell lysates ([1]; inhibitor 10 μM): virtually complete inhibition
10 | CC[C@H](NC(=O)OCc1ccccc1)C(=O)N[C@H](C(=O)N[C@@H](CC(C)C)C(=O)N(C)N(C#N)CCC(N)=O)C(C)(C)C [Compound 7] | 21 400 M^−1 s^−1 |  |  | 
